Here are results for one compound from EPA's ToxValDB 9.5 (doi:10.2903/j.efsa.2012.2917).

The subject of one series is Anas platyrhynchos. Conditions: short-term; oral; feed; mortality.

Several values for one entry are separate records, joined by “and”; a condition that tells them apart may be missing. Equal values may be shown once.

As for `Cn1cc(C(=O)Nc2ccc(F)cc2-c2ccc(Cl)c(Cl)c2)c(C(F)F)n1` [Bixafen], the LC50 was more than 1160 mg/kg-day in the series with Colinus virginianus (acute, oral, diet, mortality) and more than 1550 mg/kg-day in the series on Anas platyrhynchos. Also, the LD50 in the series on Colinus virginianus (acute, oral, mortality) was more than 2000 mg/kg-day; with Rattus norvegicus (acute, oral, mortality) it was more than 5000 mg/kg-day. In addition, the NOEC with Colinus virginianus (reproduction developmental) was 24.5 mg/kg-day and 30 mg/kg-day. Also, in the series with Rattus norvegicus (chronic, body weight), the NOEL was 33.3 mg/kg-day. Also, the NOAEL with Rattus norvegicus (chronic, duration: 2 years, organ weight) stood at 2 mg/kg-day; in the series with Rattus norvegicus (developmental, development) it was 20 mg/kg-day; in the series with Rattus norvegicus (subchronic, duration: 90 days, oral, organ weight) it was 12.9 mg/kg-day.

Usually NOAEL stands for the highest tested level that showed no adverse finding.
